In ChEMBL document CHEMBL1155460, “Prediction of acetylcholinesterase inhibitors and characterization of correlative molecular descriptors by machine learning methods” (Eur J Med Chem, 2010):

Target: Acetylcholinesterase (Homo sapiens, UniProt P22303)
Sequence (P22303 whole entry): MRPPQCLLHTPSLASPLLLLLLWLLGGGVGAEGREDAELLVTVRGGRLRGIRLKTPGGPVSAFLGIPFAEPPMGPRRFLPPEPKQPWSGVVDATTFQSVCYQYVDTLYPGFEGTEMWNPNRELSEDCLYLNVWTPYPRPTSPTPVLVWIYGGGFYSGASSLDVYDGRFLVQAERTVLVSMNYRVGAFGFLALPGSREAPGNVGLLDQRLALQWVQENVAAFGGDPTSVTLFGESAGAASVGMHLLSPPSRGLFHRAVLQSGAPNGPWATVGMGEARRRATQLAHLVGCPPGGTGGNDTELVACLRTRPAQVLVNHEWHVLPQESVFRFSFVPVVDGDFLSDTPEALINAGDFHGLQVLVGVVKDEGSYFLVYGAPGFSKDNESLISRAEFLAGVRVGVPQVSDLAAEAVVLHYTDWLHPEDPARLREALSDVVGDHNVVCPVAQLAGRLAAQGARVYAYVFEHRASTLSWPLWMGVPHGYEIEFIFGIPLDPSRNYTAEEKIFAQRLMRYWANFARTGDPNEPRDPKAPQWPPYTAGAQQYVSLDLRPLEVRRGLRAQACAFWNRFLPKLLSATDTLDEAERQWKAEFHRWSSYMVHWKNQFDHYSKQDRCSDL

Row | SMILES | IC50 [µM]
1 | O=C1c2ccc([N+](=O)[O-])cc2C(=O)N1CCC1CCN(Cc2ccccc2)CC1 | 0.0125
2 | O=C1c2ccccc2C(=O)N1CCC1CCN(Cc2ccccc2)CC1 | 0.08
3 | CC(=O)N(C)c1cccc2n1cc(-c1ccc(OC(=O)N(C)C)cc1)[n+]2C | 24.5
4 | CNC(=O)Oc1ccc(-c2cn3c(C)cccc3[n+]2C)cc1 | 4
5 | CNC(=O)Oc1ccc(-c2cn3c(NC(C)=O)cccc3[n+]2C)cc1 | 1.1
6 | CN(C)C(=O)Oc1cccc(-c2cn3ccccc3[n+]2C)c1 | 7.1
7 | Cc1cccc2n1cc(-c1cccc(OC(=O)N(C)C)c1)[n+]2C | 24
8 | CN(C)C(=O)Oc1cccc(-c2cn3c(C(F)(F)F)cccc3[n+]2C)c1 | 33.6
9 | COc1cccc2n1cc(-c1cccc(OC(=O)N(C)C)c1)[n+]2C | 20.5
10 | CC(=O)Nc1cccc2n1cc(-c1cccc(OC(=O)N(C)C)c1)[n+]2C | 2.5
11 | CNC(=O)Oc1cccc(-c2cn3ccccc3[n+]2C)c1 | 0.35
12 | COc1ccc2c(c1OC)C(=O)CC2CCC1CCN(Cc2ccccc2)CC1 (stereo unspecified) | 0.008
13 | CCCCCCCNC(=O)Oc1ccc2c(c1)[C@]1(C)CCN(C)[C@@H]1C2 | 0.114
14 | CCCCCCNC(=O)Oc1ccc2c(c1)[C@]1(C)CCN(C)[C@@H]1C2 | 0.01
15 | CNC(=O)Oc1cccc(-c2cn3c(NC(C)=O)cccc3[n+]2C)c1 | 4.5
16 | CCCCCCCNC(=O)Oc1ccc2c(c1)[C@]1(C)CCN(CC)[C@@H]1C2 | 0.058
17 | CN1CCCc2cc(C(=O)CCC3CCN(Cc4ccccc4)CC3)ccc21 | 0.024
18 | O=C(CCC1CCN(Cc2ccccc2)CC1)c1ccc2c(c1)CCCN2 | 0.054
19 | O=C(CCC1CCN(Cc2ccccc2)CC1)c1ccc2c(c1)CCCN2c1ccccc1 | 0.054
20 | CC(=O)Nc1cccc2n1cc(-c1ccc(OC(=O)N(C)C)cc1)[n+]2C | 0.7
21 | O=C(CCC1CCN(Cc2ccccc2)CC1)c1ccc2c(c1)N(c1ccccc1)CCC2 | 1.49
22 | O=C(Nc1ccccc1)c1ccc2c(c1)C(=O)N(CCC1CCN(Cc3ccccc3)CC1)C2=O | 0.0022
23 | CNC(=O)Oc1ccc(-c2cn3ccccc3[n+]2C)cc1 | 19.5

Row | SMILES | IC50 [µM]
24 | CCN1CC[C@@]2(C)c3cc(OC(=O)NC)ccc3C[C@@H]12 | 0.038
25 | c1ccc(CN2CCC(CNc3nsc4ccccc34)CC2)cc1 | 0.099
26 | Cc1cn2cc(C(N)=O)ccc2[n+]1C | 27
27 | CN(C)C(=O)Oc1ccc(-c2cn3ccccc3[n+]2C)cc1 | 17.1
28 | CN(C)C(=O)Oc1ccc(-c2cn3c(C(F)(F)F)cccc3[n+]2C)cc1 | 10
29 | CCN1CC[C@@]2(C)c3cc(OC(=O)Nc4ccccc4)ccc3C[C@@H]12 | 0.176
30 | CCCCCCNC(=O)Oc1ccc2c(c1)[C@]1(C)CCN(CCC)[C@@H]1C2 | 0.062
31 | CCCCCCCNC(=O)Oc1ccc2c(c1)[C@]1(C)CCN(Cc3ccccc3)[C@@H]1C2 | 0.506
32 | CCCCCCNC(=O)Oc1ccc2c(c1)C1CCN(CCC)C1C2 (stereo unspecified) | 0.546
33 | CN(C)C(=O)Nc1cccc2n1cc(-c1ccc(OC(=O)N(C)C)cc1)[n+]2C | 1.6
34 | COc1cccc2n1cc(-c1ccc(OC(=O)N(C)C)cc1)[n+]2C | 8.1
35 | CN(C)C(=O)Oc1ccc(-c2cn3c(NC=O)cccc3[n+]2C)cc1 | 1.2
36 | CN(C)C(=O)Oc1ccc(-c2cn3c(NC(=O)c4ccccc4)cccc3[n+]2C)cc1 | 0.2
37 | CNC(=O)Nc1cccc2n1cc(-c1ccc(OC(=O)N(C)C)cc1)[n+]2C | 1.35
38 | CCCCNC(=O)Oc1ccc2c(c1)[C@]1(C)CCN(CC)[C@@H]1C2 | 0.09
39 | CCCNC(=O)Oc1ccc2c(c1)[C@]1(C)CCN(CC)[C@@H]1C2 | 0.154
40 | CCN1CC[C@@]2(C)c3cc(OC(=O)NC(C)c4ccccc4)ccc3C[C@@H]12 (stereo partly specified) | 1.33
41 | CN(C)C(=O)Oc1cccc(-c2cn3c(Cl)cccc3[n+]2C)c1 | 12.6
42 | C[n+]1c(-c2ccccc2)cn2cc(C(N)=O)ccc21 | 9.5
43 | COC(=O)Nc1ccc2n(c1)cc(-c1ccccc1)[n+]2C | 50
44 | COC(=O)Nc1cccc2n1cc(-c1ccc(OC(=O)N(C)C)cc1)[n+]2C | 1.1
45 | c1ccc(CN2CCC(CNc3n[nH]c4ccccc34)CC2)cc1 | 0.12
46 | CCCCCCCNC(=O)Oc1ccc2c(c1)[C@]1(C)CCN(CCC)[C@@H]1C2 | 0.093

Row | SMILES | IC50 [µM]
47 | CCCCCCNC(=O)Oc1ccc2c(c1)[C@@H]1CCN(CC)[C@@H]1C2 | 0.208
48 | CCCCNC(=O)Oc1ccc2c(c1)C1CCN(CC)C1C2 (stereo unspecified) | 1.08
49 | CCCNC(=O)Oc1ccc2c(c1)C1CCN(CC)C1C2 (stereo unspecified) | 2.19
50 | CCN1CCC2c3cc(OC(=O)NC)ccc3CC21 (stereo unspecified) | 0.253
51 | CCCCCCCNC(=O)Oc1ccc2c(c1)C1CCN(CCC)C1C2 (stereo unspecified) | 0.629
52 | CN(C)C(=O)Oc1ccc(-c2cn3c(Cl)cccc3[n+]2C)cc1 | 12.6
53 | Cc1cccc2n1cc(-c1ccc(OC(=O)N(C)C)cc1)[n+]2C | 1.3
54 | O=C(CCC1CCN(Cc2ccccc2)CC1)c1ccc2c(c1)CCN2c1ccccc1 | 0.068
55 | CCCCCCCNC(=O)Oc1ccc2c(c1)[C@@H]1CCN(CC)[C@@H]1C2 | 0.381
56 | O=C1c2ccc([N+](=O)[O-])cc2C(=O)N1CCC1CCN(Cc2ccc(Cl)cc2)CC1 | 0.24
57 | CC(=O)N(C)CCC1CCN(Cc2ccccc2)CC1 | 0.66
58 | O=C(c1ccc([N+](=O)[O-])cc1)N(CCC1CCN(Cc2ccccc2)CC1)c1ccccc1 | 0.0054
59 | COc1cccc(N(CCC2CCN(Cc3ccccc3)CC2)C(C)=O)c1 | 0.046
60 | O=C(Nc1ccc2c(c1)C(=O)N(CCC1CCN(Cc3ccccc3)CC1)C2=O)c1ccccc1 | 0.0012
61 | O=C(c1ccc(F)cc1)N(CCC1CCN(Cc2ccccc2)CC1)c1ccccc1 | 0.018
62 | O=C(C1CCCCC1)N(CCC1CCN(Cc2ccccc2)CC1)c1ccccc1 | 9.4
63 | COc1ccc2c(c1)C(=O)N(CCC1CCN(Cc3ccccc3)CC1)C2=O | 0.008
64 | CN1CCC(CCN2C(=O)c3ccc([N+](=O)[O-])cc3C2=O)CC1 | 6.8
65 | CC(=O)N(CCC1CCN(Cc2ccccc2)CC1)c1cccc(F)c1 | 0.065
66 | CC(=O)N(CCC1CCN(Cc2ccccc2)CC1)c1ccncc1 | 0.108
67 | COc1ccc(N(CCC2CCN(Cc3ccccc3)CC2)C(C)=O)cc1 | 0.7
68 | CCC(=O)N(CCC1CCN(Cc2ccccc2)CC1)c1ccccc1 | 0.83
69 | COc1ccc(C(=O)N(CCC2CCN(Cc3ccccc3)CC2)c2ccccc2)cc1 | 0.59

Row | SMILES | IC50 [µM]
70 | O=C(CCC1CCN(Cc2ccccc2Cl)CC1)c1ccc2c(c1)CCN2 | 0.076
71 | Cc1cccc(CN2CCC(CCC(=O)c3ccc4c(c3)CCN4)CC2)c1 | 0.05
72 | COc1ccccc1CN1CCC(CCC(=O)c2ccc3c(c2)CCN3)CC1 | 0.812
73 | CCCN1CCCCc2ccc(C(=O)CCC3CCN(Cc4ccccc4)CC3)cc21 | 1.33
74 | O=C(CCC1CCN(Cc2ccccc2)CC1)c1ccc2c(c1)N(Cc1ccccc1)CC2 | 0.853
75 | O=C(CCC1CCN(Cc2cccc([N+](=O)[O-])c2)CC1)c1ccc2c(c1)NCCCC2 | 0.39
76 | O=C(CCC1CCN(Cc2cccc(F)c2)CC1)c1ccc2c(c1)NCCCC2 | 0.145
77 | CCN1CCc2cc(C(=O)CCC3CCN(Cc4ccccc4)CC3)ccc21 | 0.011
78 | O=C(CCC1CCN(Cc2cccc(F)c2)CC1)c1ccc2c(c1)CCN2 | 0.016
79 | COc1ccccc1CN1CCC(CCC(=O)c2ccc3c(c2)NCCCC3)CC1 | 2.65
80 | CCN1CCCCc2ccc(C(=O)CCC3CCN(Cc4ccccc4)CC3)cc21 | 0.376
81 | CN1CCc2cc(C(=O)CCC3CCN(Cc4ccccc4)CC3)ccc21 | 0.01
82 | O=C1c2ccc([N+](=O)[O-])cc2C(=O)N1CC1CCN(Cc2ccccc2)CC1 | 3
83 | O=C1c2ccccc2CN1CCC1CCN(Cc2ccccc2)CC1 | 0.098
84 | COc1ccc(CN2CCC(CCN3C(=O)c4ccc([N+](=O)[O-])cc4C3=O)CC2)cc1 | 0.44
85 | CC(=O)N(CCC1CCN(Cc2ccccc2)CC1)c1ccc(F)cc1 | 0.205
86 | O=C(c1ccncc1)N(CCC1CCN(Cc2ccccc2)CC1)c1ccccc1 | 0.064
87 | CC(=O)N(CCC1CCN(Cc2ccccc2)CC1)c1ccccc1 | 0.052
88 | CCCCCCNC(=O)Oc1ccc2c(c1)[C@]1(C)CCN(CC)[C@@H]1C2 | 0.045
89 | O=C1c2ccc([N+](=O)[O-])cc2C(=O)N1C1CCN(Cc2ccccc2)CC1 | 27
90 | O=C(CCC1CCN(Cc2cccc(Cl)c2)CC1)c1ccc2c(c1)NCCCC2 | 0.333
91 | CC(=O)Nc1ccc2c(c1)C(=O)N(CCC1CCN(Cc3ccccc3)CC1)C2=O | 0.0028
92 | O=C(c1ccccc1)N(CCC1CCN(Cc2ccccc2)CC1)c1ccccc1 | 0.035

Row | SMILES | IC50 [µM]
93 | COc1cccc(CN2CCC(CCC(=O)c3ccc4c(c3)NCCCC4)CC2)c1 | 0.847
94 | CCCCCN1CCc2cc(C(=O)CCC3CCN(Cc4ccccc4)CC3)ccc21 | 0.047
95 | COc1cccc(CN2CCC(CCC(=O)c3ccc4c(c3)CCN4)CC2)c1 | 2.68
96 | O=C(CCC1CCN(Cc2ccccc2)CC1)c1ccc2c(c1)NCCC2 | 0.164
97 | O=C(CCC1CCN(Cc2ccccc2F)CC1)c1ccc2c(c1)CCN2 | 0.043
98 | Cc1cccc(CN2CCC(CCC(=O)c3ccc4c(c3)NCCCC4)CC2)c1 | 0.224
99 | O=C(CCC1CCN(Cc2ccccc2)CC1)c1ccc2c(c1)NCC2 | 0.113
100 | CCCN1CCc2cc(C(=O)CCC3CCN(Cc4ccccc4)CC3)ccc21 | 0.022
101 | O=C(CCC1CCN(Cc2ccccc2)CC1)c1ccc2c(c1)NCCCCC2 | 0.127
102 | CN1CCCCc2ccc(C(=O)CCC3CCN(Cc4ccccc4)CC3)cc21 | 0.081
103 | O=C(CCC1CCN(Cc2cccc(Cl)c2)CC1)c1ccc2c(c1)CCN2 | 0.059
104 | O=C(CCC1CCN(Cc2ccc(F)cc2)CC1)c1ccc2c(c1)CCN2 | 0.089
105 | CCCCN1CCc2cc(C(=O)CCC3CCN(Cc4ccccc4)CC3)ccc21 | 0.029
106 | O=C(CCC1CCN(Cc2ccccc2)CC1)c1ccc2c(c1)N(Cc1ccccc1)CCCC2 | 3.14
107 | O=C(CCC1CCN(Cc2ccccc2)CC1)c1ccc2c(c1)CCN2 | 0.02
108 | O=C(CCC1CCN(Cc2ccccc2)CC1)c1ccc2c(c1)CCCCN2 | 0.125
109 | O=C(CCC1CCN(Cc2ccc(Cl)cc2)CC1)c1ccc2c(c1)CCN2 | 6.36
110 | O=C(CCC1CCN(Cc2ccc(F)cc2)CC1)c1ccc2c(c1)NCCCC2 | 0.393
111 | CN1CCCc2ccc(C(=O)CCC3CCN(Cc4ccccc4)CC3)cc21 | 0.036
